In article PMC11435058, “Synthesis of New Thiazole-Privileged Chalcones as Tubulin Polymerization Inhibitors with Potential Anticancer Activities” (Pharmaceuticals, 2024):

Columns and labels:
tubulin = experiment: In vitro tubulin polymerization inhibition assay; assay type: biochemical; conditions: 4 mg/mL tubulin, 37°C, absorbance at 340 nm
Procedure: 4.2.2. In Vitro Tubulin Polymerization Inhibition Assay.
2p, and the reference drug CD -4) with the microtubule system. Specifically, the in vitro inhibition of tubulin polymerization was evaluated for these compounds. The standard tubulin polymerization reaction was carried out, containing 100 μL of 4 mg/mL tubulin in a buffer solution of 80 mM PIPES (pH 6.9), 0.5 mM EGTA, 2 mM MgCl2, and 1 mM GTP. Polymerization was initiated by incubating the reaction […]
Under these conditions, polymerization typically reaches a maximum absorbance of […]
growth, and steady state. In this experimental set up, an absorbance of 0.1 at 340 nm corresponds to approximately 1 mg/mL of polymerized tubulin, meaning that around […]
40% of the tubulin is polymerized, allowing for the detection of both enhancers and inhibitors of polymerization. The inhibitory effect of each compound on tubulin polymerization was quantified by determining the IC50 values, which were reported as the mean ± standard deviation from three independent experiments. […]

NCI-H226 = experiment: NCI-60 anticancer screen (SRB; single dose and five doses); conditions: Homo sapiens; for GI50 / IC50: NCI-H226; for activity at 10 µM: NCI-H226, 48 h, read-out: Growth Percentage; for CC50: NCI-H226, read-out: LC50; for IC (TGI): NCI-H226, read-out: TGI
NCI-H322M = experiment: as above; conditions: Homo sapiens; for activity at 10 µM: 48 h, read-out: Growth Percentage; for CC50: read-out: LC50; for IC (TGI): read-out: TGI
SF-295 = experiment: as above; conditions: Homo sapiens; for GI50 / IC50: SF-295; for activity at 10 µM: SF-295, 48 h, read-out: Growth Percentage; for CC50: SF-295, read-out: LC50; for IC (TGI): SF-295, read-out: TGI
SK-MEL-2 = experiment: as above; conditions: Homo sapiens; for GI50 / IC50: SK-MEL-2; for activity at 10 µM: SK-MEL-2, 48 h, read-out: Growth Percentage; for CC50: SK-MEL-2, read-out: LC50; for IC (TGI): SK-MEL-2, read-out: TGI
UACC-257 = experiment: as above; conditions: Homo sapiens; for GI50 / IC50: UACC-257; for activity at 10 µM: UACC-257, 48 h, read-out: Growth Percentage; for CC50: UACC-257, read-out: LC50; for IC (TGI): UACC-257, read-out: TGI
OVCAR-5 = experiment: as above; conditions: Homo sapiens; for GI50 / IC50: OVCAR-5; for activity at 10 µM: OVCAR-5, 48 h, read-out: Growth Percentage; for CC50: OVCAR-5, read-out: LC50; for IC (TGI): OVCAR-5, read-out: TGI
MCF7 = experiment: as above; conditions: Homo sapiens; for GI50 / IC50: MCF7; for activity at 10 µM: MCF7, 48 h, read-out: Growth Percentage; for CC50: MCF7, read-out: LC50; for IC (TGI): MCF7, read-out: TGI
CCRF-CEM = experiment: NCI-60 anticancer screen (SRB; single dose 10 μM and five doses); conditions: Homo sapiens; for activity at 10 µM: 48 h, read-out: Growth Percentage; for IC (TGI): read-out: TGI

Cc1[nH]c(=S)sc1C(=O)/C=C/c1cccc([N+](=O)[O-])c1 [2h, (E)-1-(4-Methyl-2-Thioxo-2,3-Dihydrothiazol-5-yl)-3-(3-Nitrophenyl)Prop-2-En-1-One]
IC50 (tubulin): 12.5 µM | GI50 (NCI-H226): 11.2 µM | IC50 (NCI-H226): 33.1 µM | activity at 10 µM (NCI-H226): -41.9% | CC50 (NCI-H226): > 100 µM | IC (TGI) (NCI-H226): 38 µM | GI50 (NCI-H322M): 8.71 µM | IC50 (NCI-H322M): 17.4 µM | activity at 10 µM (NCI-H322M): 28.9% | CC50 (NCI-H322M): 50.1 µM | IC (TGI) (NCI-H322M): 21.9 µM | GI50 (SF-295): 3.63 µM | IC50 (SF-295): 8.71 µM | activity at 10 µM (SF-295): 4.14% | CC50 (SF-295): 39.8 µM | IC (TGI) (SF-295): 14.8 µM | GI50 (SK-MEL-2): 12.6 µM | IC50 (SK-MEL-2): 26.9 µM | activity at 10 µM (SK-MEL-2): 16.9% | CC50 (SK-MEL-2): 53.7 µM | IC (TGI) (SK-MEL-2): 26.3 µM | GI50 (UACC-257): 3.39 µM | IC50 (UACC-257): 10 µM | activity at 10 µM (UACC-257): 9.4% | CC50 (UACC-257): 38 µM | IC (TGI) (UACC-257): 13.5 µM | GI50 (OVCAR-5): 3.63 µM | IC50 (OVCAR-5): 9.12 µM | activity at 10 µM (OVCAR-5): -37.4% | CC50 (OVCAR-5): 38.9 µM | IC (TGI) (OVCAR-5): 13.8 µM | GI50 (MCF7): 2.75 µM | IC50 (MCF7): 6.31 µM | activity at 10 µM (MCF7): -45.4% | CC50 (MCF7): 38 µM | IC (TGI) (MCF7): 9.77 µM | GI50 (CCRF-CEM): 2.14 µM | activity at 10 µM (CCRF-CEM): 13.8% | IC50 (CCRF-CEM; five-dose, Leukemia CCRF-CEM): 3.39 µM | CC50 (CCRF-CEM; read-out: LC50): > 100 µM | IC (TGI) (CCRF-CEM): 6.61 µM

COc1cc(/C=C/C(=O)c2sc(=S)[nH]c2C)cc(OC)c1OC [2p, (E)-1-(4-Methyl-2-Thioxo-2,3-Dihydrothiazol-5-yl)-3-(3,4,5-Trimethoxyphenyl)Prop-2-En-1-One]
IC50 (tubulin): 25.1 µM | GI50 (NCI-H226): 3.63 µM | IC50 (NCI-H226): 32.4 µM | activity at 10 µM (NCI-H226): 16.4% | CC50 (NCI-H226): > 100 µM | IC (TGI) (NCI-H226): 36.3 µM | GI50 (NCI-H322M): 4.57 µM | IC50 (NCI-H322M): 14.1 µM | CC50 (NCI-H322M): 51.3 µM | IC (TGI) (NCI-H322M): 18.6 µM | GI50 (SF-295): 5.5 µM | IC50 (SF-295): 14.5 µM | activity at 10 µM (SF-295): 42.3% | CC50 (SF-295): 66.1 µM | IC (TGI) (SF-295): 21.4 µM | GI50 (SK-MEL-2): 3.09 µM | IC50 (SK-MEL-2): 11 µM | activity at 10 µM (SK-MEL-2): 34.9% | CC50 (SK-MEL-2): 42.7 µM | IC (TGI) (SK-MEL-2): 11.5 µM | GI50 (UACC-257): 5.13 µM | IC50 (UACC-257): 18.6 µM | activity at 10 µM (UACC-257): 42.1% | CC50 (UACC-257): 75.9 µM | IC (TGI) (UACC-257): 21.9 µM | GI50 (OVCAR-5): 3.8 µM | IC50 (OVCAR-5): 12.3 µM | activity at 10 µM (OVCAR-5): 6.56% | CC50 (OVCAR-5): 43.6 µM | IC (TGI) (OVCAR-5): 15.1 µM | GI50 (MCF7): 3.02 µM | IC50 (MCF7): 4.27 µM | activity at 10 µM (MCF7): 9.35% | CC50 (MCF7): 45.7 µM | IC (TGI) (MCF7): 10.7 µM | GI50 (CCRF-CEM): 2.45 µM | activity at 10 µM (CCRF-CEM): 4.92% | IC50 (CCRF-CEM; five-dose, Leukemia CCRF-CEM): 3.55 µM | IC (TGI) (CCRF-CEM): 8.71 µM

Cc1[nH]c(=S)sc1C(=O)/C=C/c1ccc(Br)cc1 [2g, (E)-3-(4-Bromophenyl)-1-(4-Methyl-2-Thioxo-2,3-Dihydrothiazol-5-yl)Prop-2-En-1-One]
IC50 (tubulin): 18.5 µM | GI50 (NCI-H226): 4.13 µM | activity at 10 µM (NCI-H226): 54.5% | CC50 (NCI-H226): > 100 µM | IC (TGI) (NCI-H226): 25.4 µM | GI50 (NCI-H322M): 3.76 µM | activity at 10 µM (NCI-H322M): 44.1% | CC50 (NCI-H322M): 41.3 µM | IC (TGI) (NCI-H322M): 15.2 µM | GI50 (SF-295): 12.7 µM | activity at 10 µM (SF-295): 90.4% | CC50 (SF-295): 52.7 µM | IC (TGI) (SF-295): 25.8 µM | GI50 (SK-MEL-2): 5.87 µM | activity at 10 µM (SK-MEL-2): 62.3% | CC50 (SK-MEL-2): 47.9 µM | IC (TGI) (SK-MEL-2): 19.5 µM | GI50 (UACC-257): 11.3 µM | activity at 10 µM (UACC-257): 69.1% | CC50 (UACC-257): 51.9 µM | IC (TGI) (UACC-257): 24.2 µM | GI50 (OVCAR-5): 15.4 µM | activity at 10 µM (OVCAR-5): 116% | CC50 (OVCAR-5): 57.3 µM | IC (TGI) (OVCAR-5): 29.7 µM | GI50 (MCF7): 2.57 µM | activity at 10 µM (MCF7): 10.5% | CC50 (MCF7): 38.7 µM | IC (TGI) (MCF7): 10.6 µM | GI50 (CCRF-CEM): 3.06 µM | activity at 10 µM (CCRF-CEM): -11% | IC (TGI) (CCRF-CEM): 61.5 µM

Cc1[nH]c(=S)sc1C(=O)/C=C/c1cccc(Cl)c1 [2e, (E)-3-(3-Chlorophenyl)-1-(4-Methyl-2-Thioxo-2,3-Dihydrothiazol-5-yl)Prop-2-En-1-One]
IC50 (tubulin): 4.93 µM | GI50 (NCI-H226): 4.37 µM | IC50 (NCI-H226): 29.5 µM | activity at 10 µM (NCI-H226): 32.7% | CC50 (NCI-H226): > 100 µM | IC (TGI) (NCI-H226): 38.9 µM | GI50 (NCI-H322M): 6.03 µM | IC50 (NCI-H322M): 16.2 µM | activity at 10 µM (NCI-H322M): 50.1% | CC50 (NCI-H322M): 85.1 µM | IC (TGI) (NCI-H322M): 26.3 µM | GI50 (SF-295): 4.37 µM | IC50 (SF-295): 11.5 µM | activity at 10 µM (SF-295): 41.8% | CC50 (SF-295): 43.6 µM | IC (TGI) (SF-295): 17 µM | GI50 (SK-MEL-2): 10.5 µM | IC50 (SK-MEL-2): 29.5 µM | activity at 10 µM (SK-MEL-2): 32.1% | CC50 (SK-MEL-2): 70.8 µM | IC (TGI) (SK-MEL-2): 27.5 µM | GI50 (UACC-257): 3.63 µM | IC50 (UACC-257): 9.77 µM | activity at 10 µM (UACC-257): 52.7% | CC50 (UACC-257): 63.1 µM | IC (TGI) (UACC-257): 14.8 µM | GI50 (OVCAR-5): 5.25 µM | IC50 (OVCAR-5): 15.5 µM | activity at 10 µM (OVCAR-5): 36.4% | CC50 (OVCAR-5): 57.5 µM | IC (TGI) (OVCAR-5): 19.9 µM | GI50 (MCF7): 3.31 µM | IC50 (MCF7): 8.13 µM | activity at 10 µM (MCF7): 7.9% | CC50 (MCF7): 37.1 µM | IC (TGI) (MCF7): 12.3 µM | GI50 (CCRF-CEM): 2.45 µM | IC50 (CCRF-CEM): 3.72 µM | activity at 10 µM (CCRF-CEM): 15.2% | IC (TGI) (CCRF-CEM): 7.94 µM
